Results on 20 compounds are retold here after patent US7223766B2, “Bi-cyclic pyrimidine inhibitors of TGFβ” (Scios, Inc., priority 2003, dated 2007).

pIC50: −log10 of the molar value.

For experiment [1], the system named is P-Smad 2/3. Nature of the experiment: Bleomycin-induced SMAD phosphorylation in rats, phospho SMAD 2/3 ELISA of lung tissue. It is filed as in vivo, rat. The conditions noted are these: male Sprague-Dawley rats, intratracheal bleomycin, oral 40 mg/kg bid days 1 to 5, versus control group. On the procedure: The effect of TGF-beta inhibitors on bleomycin-induced SMAD phosphorylation was studied in male Sprague-Dawley rats purchased from Charles River. Rats were housed in groups of two in the animal facility and provided with filtered air at a constant temperature and humidity. The rats were allowed to acclimate to the new environment for one week before all treatments. A 12:12 hour light-dark cycle was maintained, and the animals had free access to food and water.
To induce SMAD activation, rats were intubated with 0.5 ml of saline or 0.5 ml of 1.0 unit/ml of bleomycin by intratracheal injection under anesthesia. The anesthetic solution used was a mixture of 0.4 ml of ketamine (100 mg/ml) and 0.25 ml of xylazine (20 mg/ml) at a dose of 1.3 ml/kg.
On days 1 to 5, treated rats were weighed and orally dosed with compound 35 two-times a day at 40 mg/kg.
On Day 5, after dosing, rats were sacrificed by an overdose of the ketamine/xylazine cocktail, and then the trachea, heart and lungs of the animals were removed en bloc. All lung lobes were collected, dissected and stored in −80° C. for phospo SMAD ELISA assays.
To evaluate the effect of SMAD activation (an indicia of fibrosis), a phospho SMAD 2/3 ELISA assay was performed using the lung tissue of the sacrificed animals.

The target in experiment [2] is T1, TGF R1 kinase (Homo sapiens, UniProt P36897).
T1 sequence (P36897 34-503): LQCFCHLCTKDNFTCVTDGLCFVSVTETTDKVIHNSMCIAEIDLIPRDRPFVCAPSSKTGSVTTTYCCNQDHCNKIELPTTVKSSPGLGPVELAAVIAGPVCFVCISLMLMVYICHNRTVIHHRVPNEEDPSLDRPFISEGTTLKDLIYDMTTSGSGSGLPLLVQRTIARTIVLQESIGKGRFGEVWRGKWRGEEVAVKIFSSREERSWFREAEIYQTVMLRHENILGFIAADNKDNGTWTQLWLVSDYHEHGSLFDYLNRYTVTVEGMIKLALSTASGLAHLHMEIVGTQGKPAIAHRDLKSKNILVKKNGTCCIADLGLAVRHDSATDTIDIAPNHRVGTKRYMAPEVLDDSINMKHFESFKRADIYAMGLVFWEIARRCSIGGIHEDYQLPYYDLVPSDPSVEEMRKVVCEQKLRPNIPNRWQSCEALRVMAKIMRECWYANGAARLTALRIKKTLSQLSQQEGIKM
Kind of experiment: TGF-β inhibition assay: phosphorylation of the substrate casein by TGF R1 kinase. Type of experiment: biochemical. The conditions noted are these: table names no assay; casein assay of Example 2: 2.5 μM ATP, 100 μM casein, 6.4 nM TGF R1 kinase. On the procedure:
Invention compounds were tested for their abilities to inhibit the phosphorylation of the substrate casein. The assay was conducted as follows: Compound dilutions and reagents were prepared fresh daily. Compounds were diluted from DMSO stock solutions to 2 times the desired assay concentration, keeping final DMSO concentration in the assay less than or equal to 1%. TGF RI kinase was diluted to 4 times the desired assay concentration in buffer and DTT. ATP and casein were diluted into 4× reaction buffer, and gamma-^32P-ATP was added at 50 μCi/mL.
The assay was performed by adding 10 μl of the enzyme to 20 μl of the compound solution. The reaction was initiated by the addition of 10 μl of the casein/ATP mix. Final assay conditions included 2.5 μM ATP, 100 μM casein, 6.4 nM TGF R1 kinase, and […] in 20 mM Tris buffer, pH 7.5. The reactions were incubated at room temperature for 45 minutes. The reactions were then stopped by transferring 23 μl of reaction mixture onto a phosphocellulose 96-well filter plate, which had been pre-wetted with 15 μl of 0.25M H3PO4 per well. After 5 minutes, the wells were washed 4× with 75 mM H3PO4 and once with 95% ethanol. The plate was dried, scintillation cocktail was added to each well, and the wells were counted in a Packard TopCount microplate scintillation counter. The ability of a compound to inhibit the enzyme was determined by comparing the counts obtained in the presence of the compound to those of the positive control (in the absence of compound) and the negative control (in the absence of enzyme).
In both of the assays referenced above, IC50 values can be determined with curve-fitting plots available with common software packages. Approximate IC50 values can be calculated using formula: IC50 (app)=A×i/(1−A) where A=fractional activity and i=total inhibitor concentration.

On to `CNC(=O)c1cnccc1Nc1nc(-c2cc(Cl)ccc2F)nc2c1CCC2` [Compound 35], for which the “bleomycin-induced phosphorylation of P-Smad 2/3 in the lung” value in experiment [1] (40 mg/kg) is “significantly reduce”; in experiment [1] (listed as compound 35, 40 mg/kg), “reduce”. In experiment [2], this compound showed a negative-log IC50 (pIC50) of 7.31.

In the case of `CC1(C)Cc2nc(-c3cc(Cl)ccc3F)nc(Nc3ccncc3C(N)=O)c2C1` [Compound 62, 4-[2-(5-Chloro-2-fluoro-phenyl)-6,6-dimethyl-6,7-dihydro-5H-cyclopentapyrimidin-4-ylamino]-nicotinamide], the negative-log IC50 (pIC50) in experiment [2] was 6.69.

In experiment [2], `CNC(=O)c1cnccc1Nc1nc(-c2cc(Cl)ccc2F)nc2c1CC(C)(C)C2` [Compound 63] gave a pIC50 of 6.99.

Compound `C[C@@H](O)CNC(=O)c1cnccc1Nc1nc(-c2cc(Cl)ccc2F)nc2c1CC(C)(C)C2` [Compound 64] showed a negative logarithm of the IC50 (pIC50) in experiment [2] of 5.74.

With `CC1(C)Cc2nc(-c3cc(Cl)ccc3F)nc(Nc3ccncc3C(=O)NC[C@H](O)CO)c2C1` [Compound 65], the negative-log IC50 (pIC50) in experiment [2] was 5.56.

As for `CNCCNC(=O)c1cnccc1Nc1nc(-c2cc(Cl)ccc2F)nc2c1CC(C)(C)C2` [Compound 66], in experiment [2], the pIC50 was 5.90.

`COC(=O)c1cnccc1Nc1nc(-c2ccccc2)nc2c1CCC2` [Compound 67] showed a negative-log IC50 (pIC50) in experiment [2] of 5.05.

As for `CNC(=O)c1cnccc1Nc1nc(-c2ccccc2)nc2c1CCC2` [Compound 68], the pIC50 in experiment [2] was 6.54.

For `CN(C)CCCNC(=O)c1cnccc1Nc1nc(-c2cc(Cl)ccc2F)nc2c1CCC2` [Compound 69], the negative-log IC50 (pIC50) in experiment [2] is 7.04.

Compound `O=C(NCCCN1CCOCC1)c1cnccc1Nc1nc(-c2cc(Cl)ccc2F)nc2c1CCC2` [Compound 70] had a pIC50 in experiment [2] of 6.28.

In turn, `O=C(NCCCn1ccnc1)c1cnccc1Nc1nc(-c2cc(Cl)ccc2F)nc2c1CCC2` [Compound 71] gave a negative logarithm of the IC50 (pIC50) in experiment [2] of 6.07.

Regarding `O=C(NCCCN1CCCC1=O)c1cnccc1Nc1nc(-c2cc(Cl)ccc2F)nc2c1CCC2` [Compound 72], in experiment [2], the pIC50 is 5.19.

As for `CN1CCCC1CCNC(=O)c1cnccc1Nc1nc(-c2cc(Cl)ccc2F)nc2c1CCC2` (stereo not shown) [Compound 73], the pIC50 in experiment [2] was 6.51.

Compound `CC1CCCCN1CCCNC(=O)c1cnccc1Nc1nc(-c2cc(Cl)ccc2F)nc2c1CCC2` (stereo not shown) [Compound 74] gave a negative logarithm of the IC50 (pIC50) in experiment [2] of 6.94.

The compound `O=C(NCCN1CCCC1)c1cnccc1Nc1nc(-c2cc(Cl)ccc2F)nc2c1CCC2` [Compound 75] showed a negative logarithm of the IC50 (pIC50) in experiment [2] of 6.15.

In experiment [2], `O=C(NCCN1CCCCC1)c1cnccc1Nc1nc(-c2cc(Cl)ccc2F)nc2c1CCC2` [Compound 78] gave a pIC50 of 5.61.

Compound `CCN(CC)CCNC(=O)c1cnccc1Nc1nc(-c2ccccc2F)nc2c1CCC2` [Compound 79] gave a pIC50 in experiment [2] of 5.26.

Consider `Cc1cnccc1Nc1nc(-c2cc(Cl)ccc2F)nn2cccc12` [Compound 80], for which the pIC50 in experiment [2] is 6.07.

Regarding `Fc1ccccc1-c1cc(Nc2ccncc2)n2ncnc2n1` [Compound 82], the negative-log IC50 (pIC50) in experiment [2] is 5.05.

`Fc1ccccc1-c1cc(Nc2ccncn2)n2ncnc2n1` [Compound 83] had a negative logarithm of the IC50 (pIC50) in experiment [2] of 4.77.

One may read the pIC50 as the IC50 on a negative log10 scale, so that one unit is a factor of ten.
